Measured values as given in patent publication US20230157952A1, “METHOD FOR IMPROVING THE STABILITY OF A PHARMACEUTICAL COMPOSITION COMPRISING A HIGH PENETRATION DRUG, AND THE PHARMACEUTICAL COMPOSITION OBTAINED THEREFROM” (Techfields Inc., priority 2020, published 2023).
One block for each compound: values may come before it.

Columns and labels:
[1] = Effect of concentration on the stability of the solution (purity over time)
[2] = Effect of temperature (and pH) on the stability of the solution (purity); format: physicochemical; conditions: 7% solution in water
[3] = 0.01 wt %, at 5° C. in 15% acetone
[4] = 0.1 wt %, at 5° C. in 15% acetone
[5] = 1 wt %, at 5° C. in 15% acetone
[6] = 3 wt %, at 5° C. in 15% acetone
[7] = 5 wt %, at 5° C. in 15% acetone
[8] = 7 wt %, at 5° C. in 15% acetone
[9] = 8 wt %, at 5° C. in 15% acetone
[10] = 10 wt %, at 5° C. in 15% acetone
[11] = 15 wt %, at 5° C. in 15% acetone
[12] = 20 wt %, at 5° C. in 15% acetone
[13] = 30 wt %, at 5° C. in 15% acetone
[14] = 50 wt %, at 5° C. in 15% acetone

Structure (SMILES): CCN(CC)CCOC(=O)c1cc(-c2ccc(F)cc2F)ccc1OC(C)=O.Cl [2-(diethylamino)ethyl 5-(2,4-difluorophenyl)-2-acetoxybenzoate•HCl]
Purity at day 0 [1, 3]: 98.2% | Purity at day 3 [1, 3]: 93.9% | Purity at day 7 [1, 3]: 88.1% | Purity at day 15 [1, 3]: 80.3% | Purity at day 22 [1, 3]: 73.7% | Purity at day 28 [1, 3]: 67.9% | Purity at day 60 [1, 3]: 48.1% | Purity at day 90 [1, 3]: 30.0% | Purity at day 0 [1, 4]: 98.3% | Purity at day 3 [1, 4]: 95.1% | Purity at day 7 [1, 4]: 93.1% | Purity at day 15 [1, 4]: 89.0% | Purity at day 22 [1, 4]: 85.3% | Purity at day 28 [1, 4]: 82.3% | Purity at day 60 [1, 4]: 70.5% | Purity at day 90 [1, 4]: 61.2% | Purity at day 0 [1, 5]: 98.4% | Purity at day 3 [1, 5]: 97.0% | Purity at day 7 [1, 5]: 95.9% | Purity at day 15 [1, 5]: 94.0% | Purity at day 22 [1, 5]: 92.2% | Purity at day 28 [1, 5]: 89.7% | Purity at day 60 [1, 5]: 79.4% | Purity at day 90 [1, 5]: 71.9% | Purity at day 0 [1, 6]: 98.5% | Purity at day 3 [1, 6]: 97.7% | Purity at day 7 [1, 6]: 96.6% | Purity at day 15 [1, 6]: 94.9% | Purity at day 22 [1, 6]: 92.1% | Purity at day 28 [1, 6]: 91.2% | Purity at day 60 [1, 6]: 84.4% | Purity at day 90 [1, 6]: 79.2% | Purity at day 0 [1, 7]: 98.6% | Purity at day 3 [1, 7]: 98.2% | Purity at day 7 [1, 7]: 97.8% | Purity at day 15 [1, 7]: 97.3% | Purity at day 22 [1, 7]: 96.1% | Purity at day 28 [1, 7]: 95.5% | Purity at day 60 [1, 7]: 94.5% | Purity at day 90 [1, 7]: 93.9% | Purity at day 0 [1, 8]: 98.7% | Purity at day 3 [1, 8]: 98.4% | Purity at day 7 [1, 8]: 98.4% | Purity at day 15 [1, 8]: 98.0% | Purity at day 22 [1, 8]: 97.5% | Purity at day 28 [1, 8]: 97.2% | Purity at day 60 [1, 8]: 96.2% | Purity at day 90 [1, 8]: 95.8% | Purity at day 0 [1, 9]: 98.6% | Purity at day 3 [1, 9]: 98.5% | Purity at day 7 [1, 9]: 98.3% | Purity at day 15 [1, 9]: 98.1% | Purity at day 22 [1, 9]: 97.4% | Purity at day 28 [1, 9]: 97.1% | Purity at day 60 [1, 9]: 96.0% | Purity at day 90 [1, 9]: 95.9% | Purity at day 0 [1, 10]: 98.7% | Purity at day 3 [1, 10]: 98.5% | Purity at day 7 [1, 10]: 98.5% | Purity at day 15 [1, 10]: 98.2% | Purity at day 22 [1, 10]: 97.7% | Purity at day 28 [1, 10]: 97.3% | Purity at day 60 [1, 10]: 96.7% | Purity at day 90 [1, 10]: 96.1% | Purity at day 0 [1, 11]: 98.6% | Purity at day 3 [1, 11]: 98.4% | Purity at day 7 [1, 11]: 98.4% | Purity at day 15 [1, 11]: 98.3% | Purity at day 22 [1, 11]: 97.5% | Purity at day 28 [1, 11]: 97.2% | Purity at day 60 [1, 11]: 96.5% | Purity at day 90 [1, 11]: 96.2% | Purity at day 0 [1, 12]: 98.7% | Purity at day 3 [1, 12]: 98.5% | Purity at day 7 [1, 12]: 98.5% | Purity at day 15 [1, 12]: 98.3% | Purity at day 22 [1, 12]: 98.0% | Purity at day 28 [1, 12]: 97.1% | Purity at day 60 [1, 12]: 96.6% | Purity at day 90 [1, 12]: 96.0% | Purity at day 0 [1, 13]: 98.5% | Purity at day 3 [1, 13]: 98.5% | Purity at day 7 [1, 13]: 98.4% | Purity at day 15 [1, 13]: 98.1% | Purity at day 22 [1, 13]: 97.9% | Purity at day 28 [1, 13]: 97.3% | Purity at day 60 [1, 13]: 96.7% | Purity at day 90 [1, 13]: 96.2% | Purity at day 0 [1, 14]: 98.7% | Purity at day 3 [1, 14]: 98.7% | Purity at day 7 [1, 14]: 98.5% | Purity at day 15 [1, 14]: 98.3% | Purity at day 22 [1, 14]: 97.8% | Purity at day 28 [1, 14]: 97.2% | Purity at day 60 [1, 14]: 96.9% | Purity at day 90 [1, 14]: 96.3% | Stability when the concentration is 0.1% or lower ([1]; at 5° C. in 15% acetone): not stable | Stability of the solution at a temperature higher than 40° C. and a pH lower than 3 or greater than 6 [2]: not stable

Purity at Day 3 ([1]; 0.01 wt %, in water at 25° C.): 82.3% | Purity at Day 7 ([1]; 0.01 wt %, in water at 25° C.): 71.2% | Purity at Day 14 ([1]; 0.01 wt %, in water at 25° C.): 59.4% | Purity at Day 21 ([1]; 0.01 wt %, in water at 25° C.): 50.4% | Purity at Day 28 ([1]; 0.01 wt %, in water at 25° C.): 43.7% | Purity at hr 0 ([1]; 0.01 wt %, in water at 25° C.): 97.1% | Purity at Day 3 ([1]; 0.1 wt %, in water at 25° C.): 95.7% | Purity at Day 7 ([1]; 0.1 wt %, in water at 25° C.): 93.6% | Purity at Day 14 ([1]; 0.1 wt %, in water at 25° C.): 89.8% | Purity at Day 21 ([1]; 0.1 wt %, in water at 25° C.): 84.4% | Purity at Day 28 ([1]; 0.1 wt %, in water at 25° C.): 78.9% | Purity at hr 0 ([1]; 0.1 wt %, in water at 25° C.): 97.2% | Purity at Day 3 ([1]; 1 wt %, in water at 25° C.): 96.2% | Purity at Day 7 ([1]; 1 wt %, in water at 25° C.): 95.2% | Purity at Day 14 ([1]; 1 wt %, in water at 25° C.): 93.1% | Purity at Day 21 ([1]; 1 wt %, in water at 25° C.): 91.5% | Purity at Day 28 ([1]; 1 wt %, in water at 25° C.): 90.1% | Purity at hr 0 ([1]; 1 wt %, in water at 25° C.): 97.3% | Purity at Day 3 ([1]; 3 wt %, in water at 25° C.): 96.7% | Purity at Day 7 ([1]; 3 wt %, in water at 25° C.): 96.3% | Purity at Day 14 ([1]; 3 wt %, in water at 25° C.): 95.0% | Purity at Day 21 ([1]; 3 wt %, in water at 25° C.): 94.1% | Purity at Day 28 ([1]; 3 wt %, in water at 25° C.): 93.1% | Purity at hr 0 ([1]; 3 wt %, in water at 25° C.): 97.3% | Purity at Day 3 ([1]; 5 wt %, in water at 25° C.): 97.3% | Purity at Day 7 ([1]; 5 wt %, in water at 25° C.): 97.1% | Purity at Day 14 ([1]; 5 wt %, in water at 25° C.): 96.7% | Purity at Day 21 ([1]; 5 wt %, in water at 25° C.): 96.2% | Purity at Day 28 ([1]; 5 wt %, in water at 25° C.): 95.4% | Purity at hr 0 ([1]; 5 wt %, in water at 25° C.): 97.5% | Purity at Day 3 ([1]; 7 wt %, in water at 25° C.): 97.4% | Purity at Day 7 ([1]; 7 wt %, in water at 25° C.): 97.3% | Purity at Day 14 ([1]; 7 wt %, in water at 25° C.): 97.1% | Purity at Day 21 ([1]; 7 wt %, in water at 25° C.): 96.6% | Purity at Day 28 ([1]; 7 wt %, in water at 25° C.): 96.4% | Purity at hr 0 ([1]; 7 wt %, in water at 25° C.): 97.6% | Purity at Day 3 ([1]; 8 wt %, in water at 25° C.): 97.4% | Purity at Day 7 ([1]; 8 wt %, in water at 25° C.): 97.2% | Purity at Day 14 ([1]; 8 wt %, in water at 25° C.): 96.9% | Purity at Day 21 ([1]; 8 wt %, in water at 25° C.): 96.8% | Purity at Day 28 ([1]; 8 wt %, in water at 25° C.): 96.5% | Purity at hr 0 ([1]; 8 wt %, in water at 25° C.): 97.5% | Purity at Day 3 ([1]; 10 wt %, in water at 25° C.): 97.5% | Purity at Day 7 ([1]; 10 wt %, in water at 25° C.): 97.3% | Purity at Day 14 ([1]; 10 wt %, in water at 25° C.): 97.0% | Purity at Day 21 ([1]; 10 wt %, in water at 25° C.): 97.0% | Purity at Day 28 ([1]; 10 wt %, in water at 25° C.): 96.7% | Purity at hr 0 ([1]; 10 wt %, in water at 25° C.): 97.5% | Purity at Day 3 ([1]; 15 wt %, in water at 25° C.): 97.4% | Purity at Day 7 ([1]; 15 wt %, in water at 25° C.): 97.4% | Purity at Day 14 ([1]; 15 wt %, in water at 25° C.): 97.1% | Purity at Day 21 ([1]; 15 wt %, in water at 25° C.): 97.1% | Purity at Day 28 ([1]; 15 wt %, in water at 25° C.): 96.8% | Purity at hr 0 ([1]; 15 wt %, in water at 25° C.): 97.6% | Purity at Day 3 ([1]; 20 wt %, in water at 25° C.): 97.4% | Purity at Day 7 ([1]; 20 wt %, in water at 25° C.): 97.6% | Purity at Day 14 ([1]; 20 wt %, in water at 25° C.): 97.2% | Purity at Day 21 ([1]; 20 wt %, in water at 25° C.): 97.1% | Purity at Day 28 ([1]; 20 wt %, in water at 25° C.): 96.8% | Purity at hr 0 ([1]; 20 wt %, in water at 25° C.): 97.6% | Purity at Day 3 ([1]; 30 wt %, in water at 25° C.): 97.5% | Purity at Day 7 ([1]; 30 wt %, in water at 25° C.): 97.5% | Purity at Day 14 ([1]; 30 wt %, in water at 25° C.): 97.3% | Purity at Day 21 ([1]; 30 wt %, in water at 25° C.): 97.0% | Purity at Day 28 ([1]; 30 wt %, in water at 25° C.): 96.7% | Purity at hr 0 ([1]; 30 wt %, in water at 25° C.): 97.7% | Purity at Day 3 ([1]; 50 wt %, in water at 25° C.): 97.5% | Purity at Day 7 ([1]; 50 wt %, in water at 25° C.): 97.5% | Purity at Day 14 ([1]; 50 wt %, in water at 25° C.): 97.2% | Purity at Day 21 ([1]; 50 wt %, in water at 25° C.): 96.8% | Purity at Day 28 ([1]; 50 wt %, in water at 25° C.): 96.8% | Purity at hr 0 ([1]; 50 wt %, in water at 25° C.): 97.7% | Stability when the concentration is 0.1% or lower ([1]; in water at 25° C.): not stable | Stability of the solution at a temperature higher than 40° C. and a pH lower than 3 or greater than 6 [2]: not stable
Structure (SMILES): CCN(CC)CCOC(=O)CC1=C(C)C(=Cc2ccc([S+](C)[O-])cc2)c2ccc(F)cc21.Cl (stereo not shown) [2-(diethylamino)ethyl 5-fluoro-2-methyl-1-[[4-(methylsulfinyl)phenyl]methylene]-1H-indene-3-acetate•HCl]
